From ChEMBL document CHEMBL4422673, “Discovery, synthesis and characterization of a series of (1-alkyl-3-methyl-1H-pyrazol-5-yl)-2-(5-aryl-2H-tetrazol-2-yl)acetamides as novel GIRK1/2 potassium channel activators” (Bioorg Med Chem Lett, 2019)
Active and inactive are the calls of the source. No cut-off for these calls is given here.

Tests used:
Kir3.1/Kir3.4 [1] = target: T1, Kir3.1/Kir3.4 (Homo sapiens, UniProt P48549+P48544); assay: (§1) Activation of human GIRK1/4 expressed in HEK293 cells co-expressing rat mGlu8 by thallium flux assay; type: cell-based; settings: hek293
T1 sequence (P48549 whole entry): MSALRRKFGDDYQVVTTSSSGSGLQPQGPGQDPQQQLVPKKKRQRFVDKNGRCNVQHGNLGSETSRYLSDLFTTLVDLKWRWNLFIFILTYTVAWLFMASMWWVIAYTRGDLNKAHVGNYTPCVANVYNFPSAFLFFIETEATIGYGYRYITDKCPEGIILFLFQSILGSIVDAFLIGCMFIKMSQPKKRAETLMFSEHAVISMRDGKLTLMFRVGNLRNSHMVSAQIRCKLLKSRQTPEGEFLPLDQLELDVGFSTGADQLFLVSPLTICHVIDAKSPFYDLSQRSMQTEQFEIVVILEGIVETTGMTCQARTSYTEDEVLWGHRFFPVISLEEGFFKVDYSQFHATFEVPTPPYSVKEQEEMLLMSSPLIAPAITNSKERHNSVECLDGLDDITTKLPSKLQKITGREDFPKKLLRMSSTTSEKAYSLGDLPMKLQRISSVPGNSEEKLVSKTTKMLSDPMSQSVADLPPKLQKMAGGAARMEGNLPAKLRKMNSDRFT
T1 sequence (P48544 whole entry): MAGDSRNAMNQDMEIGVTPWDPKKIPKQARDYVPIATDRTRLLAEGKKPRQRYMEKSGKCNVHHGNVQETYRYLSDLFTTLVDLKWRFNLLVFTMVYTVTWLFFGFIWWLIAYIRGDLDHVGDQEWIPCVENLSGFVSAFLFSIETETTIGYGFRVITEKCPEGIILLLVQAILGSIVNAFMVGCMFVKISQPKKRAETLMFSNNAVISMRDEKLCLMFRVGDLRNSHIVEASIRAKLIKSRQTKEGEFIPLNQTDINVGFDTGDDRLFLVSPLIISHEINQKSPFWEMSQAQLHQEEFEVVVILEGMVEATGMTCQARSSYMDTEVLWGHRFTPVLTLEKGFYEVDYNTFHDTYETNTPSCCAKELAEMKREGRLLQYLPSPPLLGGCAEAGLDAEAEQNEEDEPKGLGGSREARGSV

[2] = target: T2, Kir3.1/Kir3.2 (Homo sapiens) (UniProt P48549+P48051); assay: Activation of human GIRK1/2 expressed in HEK293 cells co-expressing rat mGlu8 by thallium flux assay relative to control; type: cell-based
Kir3.1/Kir3.2 [3] = target: T3, Kir3.1/Kir3.2 (Homo sapiens, UniProt P48051+P48549); assay: (§2) Activation of human GIRK1/2 expressed in HEK293 cells co-expressing rat mGlu8 by thallium flux assay; type: cell-based
T3 sequence (P48549 whole entry): T1 sequence (P48549 whole entry)
T3 sequence (P48051 whole entry): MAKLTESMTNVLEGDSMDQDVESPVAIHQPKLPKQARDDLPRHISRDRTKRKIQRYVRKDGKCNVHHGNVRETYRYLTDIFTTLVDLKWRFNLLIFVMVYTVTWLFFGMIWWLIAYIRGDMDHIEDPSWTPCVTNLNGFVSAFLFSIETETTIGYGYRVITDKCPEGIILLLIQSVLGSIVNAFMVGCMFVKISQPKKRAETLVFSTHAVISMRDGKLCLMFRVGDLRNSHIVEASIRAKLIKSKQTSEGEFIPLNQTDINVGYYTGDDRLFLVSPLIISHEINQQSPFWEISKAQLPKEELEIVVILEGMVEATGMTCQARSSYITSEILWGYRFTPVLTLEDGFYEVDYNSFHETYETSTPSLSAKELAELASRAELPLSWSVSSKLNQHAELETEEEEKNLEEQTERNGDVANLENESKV

[4] = target: Kir3.1/Kir3.4 (Homo sapiens) (UniProt P48549+P48544); assay: Activation of human GIRK1/4 expressed in HEK293 cells co-expressing rat mGlu8 by thallium flux assay relative to control; type: cell-based
Kir3.1/Kir3.4 [5] = target: T4, Kir3.1/Kir3.4 (Homo sapiens, UniProt P48544+P48549); assay: as §1; type: cell-based
T4 sequence (P48549 whole entry): T1 sequence (P48549 whole entry)
T4 sequence (P48544 whole entry): T1 sequence (P48544 whole entry)

[6] = Stability in mouse plasma; type: ADME, cell-free
[7] = Clearance in mouse liver microsomes
[8] = Fraction unbound in human plasma; type: ADME, cell-free
[9] = Clearance in human liver microsomes
[10] = Half life in human liver S9 fraction; type: ADME, subcellular
[11] = Extraction ratio in human liver S9 fraction; type: ADME, subcellular; settings: read-out: ERH
Kir3.1/Kir3.2 [12] = target: T5, Kir3.1/Kir3.2 (Homo sapiens, UniProt P48549+P48051); assay: as §2; type: cell-based; settings: hek293
T5 sequence (P48549 whole entry): T1 sequence (P48549 whole entry)
T5 sequence (P48051 whole entry): T3 sequence (P48051 whole entry)

[13] = target: T2, Kir3.1/Kir3.2 (Homo sapiens); assay: as §2; type: cell-based
Homo sapiens = organism: Homo sapiens; assay: Ratio of EC50 for activation of human GIRK1/4 expressed in HEK293 cells co-expressing rat mGlu8 by thallium flux assay to EC50 for Activation of human GIRK1/2 expressed in HEK293 cells co-expressing rat mGlu8 by thallium flux assay; type: cell-based

SMILES	EC50 (Kir3.1/Kir3.4 [1])	Emax [2]	EC50 (Kir3.1/Kir3.2 [3])	Emax [4]	EC50 (Kir3.1/Kir3.4 [5])	Stability [6]	CLhep predicted [7]	Fu [8]	CLhep predicted [9]	t1/2 [10]	hepatic extraction ratio [11]	EC50 (Kir3.1/Kir3.2 [12])	Activity [13]	Ratio EC50 (Homo sapiens)
Cc1cc(NC(=O)Cn2nnc(-c3ccccc3)n2)n(C2CCS(=O)(=O)CC2)n1	Not Active	> 25%	> 10000 nM	inactive	–	–	–	–	–	–	–	–	–	–
Cc1cc(NC(=O)Cn2nnc(-c3ccccc3)n2)n(CC2CCCCC2)n1	–	77%	176 nM	58%	283 nM	Unstable	88.7 mL/min/kg	0.3%	20.4 mL/min/kg	–	–	–	–	–
Cc1cc(NC(=O)Cn2nnc(-c3ccccc3)n2)n(C2CCS(=O)(=O)C2)n1 (stereo not drawn)	–	93%	1030 nM	75%	2170 nM	Unstable	–	3.7%	–	647.5 min	< 0.05	–	–	–
Cc1nc(NC(=O)Cn2nnc(-c3ccccc3)n2)n(-c2ccccc2)n1	Not Active	inactive	–	inactive	–	–	–	–	–	–	–	Not Active	–	–
Cc1cc(NC(=O)Cn2nnc(-c3ccccc3)n2)n(C2CCC(F)(F)CC2)n1	–	68%	84 nM	52%	383 nM	Unstable	80 mL/min/kg	1.5%	15.9 mL/min/kg	–	–	–	–	–
Cc1cc(N(C)C(=O)Cn2nnc(-c3ccccc3)n2)n(C2CCCCC2)n1	–	–	–	–	–	–	–	–	–	–	–	–	inactive	–
Cc1cc(NC(=O)Cc2ccc(-c3ccccc3)cn2)n(C2CCCCC2)n1	Not Active	36%	1520 nM	inactive	–	–	–	–	–	–	–	–	–	–
Cc1cc(NC(=O)Cn2nnc(-c3ccccc3)n2)n(C2CCCCC2)n1	–	92%	96 nM	63%	259 nM	Unstable	87 mL/min/kg	1.1%	18.9 mL/min/kg	–	–	–	–	3
Cc1cc(NC(=O)Cn2nncc2-c2ccccc2)n(C2CCCCC2)n1	–	87%	375 nM	49%	1030 nM	Unstable	87.7 mL/min/kg	0.4%	18.3 mL/min/kg	–	–	–	–	–
O=C(Cn1nnc(-c2ccccc2)n1)Nc1ccccn1	Not Active	inactive	–	inactive	–	–	–	–	–	–	–	Not Active	–	–
Cc1cc(NC(=O)Cn2nnc(-c3ccccc3)n2)n(C2CCC(C)(C)CC2)n1	Not Active	> 19%	> 221 nM	inactive	–	–	–	–	–	–	–	–	–	–
Cc1cc(NC(=O)Cn2nnc(-c3ccc(F)c(F)c3)n2)n(C2CCCCC2)n1	–	93%	116 nM	79%	392 nM	–	–	–	–	–	–	–	–	3 to 5
Cc1cc(NC(=O)Cn2nnc(-c3cccc(F)c3)n2)n(C2CCCCC2)n1	–	96%	–	80%	–	Unstable	87.1 mL/min/kg	1%	17.8 mL/min/kg	–	–	–	–	3 to 5
CC1(c2cc(NC(=O)Cn3nnc(-c4ccccc4)n3)n(C3CCCCC3)n2)CC1	Not Active	> 10%	> 10000 nM	inactive	–	–	–	–	–	–	–	–	–	–
Cc1cc(NC(=O)Cn2nnc(-c3ccc(Cl)c(Cl)c3)n2)n(C2CCCCC2)n1	–	84%	1220 nM	70%	2200 nM	Unstable	76 mL/min/kg	< 0.3%	17.4 mL/min/kg	–	–	–	–	3 to 5
Cc1cc(NC(=O)Cn2nnc(-c3cccc(F)n3)n2)n(C2CCCCC2)n1	–	> 83%	> 3000 nM	> 38%	> 10000 nM	–	–	–	–	–	–	–	–	–

SMILES	EC50 (Kir3.1/Kir3.4 [1])	Emax [2]	EC50 (Kir3.1/Kir3.2 [3])	Emax [4]	EC50 (Kir3.1/Kir3.4 [5])	Stability [6]	CLhep predicted [7]	Fu [8]	CLhep predicted [9]	t1/2 [10]	hepatic extraction ratio [11]	EC50 (Kir3.1/Kir3.2 [12])	Activity [13]	Ratio EC50 (Homo sapiens)
Cc1cc(NC(=O)Cc2cccc(-c3ccccc3)c2)n(C2CCCCC2)n1	–	72%	370 nM	> 51%	> 4000 nM	–	–	–	–	–	–	–	–	–
Cc1cc(NC(=O)Cn2nnc(-c3ccccc3)n2)n(Cc2ccccc2)n1	–	74%	495 nM	48%	848 nM	–	–	–	–	–	–	–	–	–
Cc1cc(NC(=O)Cn2nnc(-c3ccc(Cl)c(C)c3)n2)n(C2CCCCC2)n1	–	89%	712 nM	51%	1510 nM	–	–	–	–	–	–	–	–	–
Cc1nc(-c2ccccc2)c(NC(=O)Cn2nnc(-c3ccccc3)n2)s1	Not Active	inactive	–	inactive	–	–	–	–	–	–	–	Not Active	–	–
Cc1cc(NC(=O)Cn2nnc(-c3ccccc3)n2)n(C2CC2)n1	–	> 78%	> 5000 nM	> 39%	> 10000 nM	–	–	–	–	–	–	–	–	–
Cc1cccc(-c2nnn(CC(=O)Nc3cc(C)nn3C3CCCCC3)n2)c1	–	93%	129 nM	63%	435 nM	–	–	–	–	–	–	–	–	–
Cc1cc(NC(=O)Cn2nnc(-c3ccccc3)n2)n(C2CCCC2)n1	–	105%	163 nM	84%	612 nM	–	–	–	–	–	–	–	–	–
Cc1cc(NC(=O)Cn2nnc(-c3cc(Cl)cc(Cl)c3)n2)n(C2CCCCC2)n1	–	82%	980 nM	51%	2120 nM	–	–	–	–	–	–	–	–	–
Cc1cc(NC(=O)Cn2nnc(-c3ccccc3)n2)n(CC(F)(F)F)n1	–	> 105%	> 6000 nM	> 97%	> 10000 nM	–	–	–	–	–	–	–	–	–
Cc1cc(NC(=O)Cn2cc(-c3ccccc3)nn2)n(C2CCCCC2)n1	–	87%	116 nM	76%	412 nM	Unstable	78.2 mL/min/kg	3%	14.6 mL/min/kg	–	–	–	–	–
Cc1cc(NC(=O)Cn2nnc(-c3ccccc3)n2)n(C2CCOCC2)n1	–	115%	435 nM	109%	2040 nM	–	–	–	–	–	–	–	–	–
Cc1cc(NC(=O)Cn2nnc(C3CC3)n2)n(C2CCCCC2)n1	–	> 68%	> 3000 nM	> 25%	> 10000 nM	–	–	–	–	–	–	–	–	–
Cc1cc(NC(=S)Cn2nnc(-c3ccccc3)n2)n(C2CCCCC2)n1	–	80%	623 nM	36%	1260 nM	Unstable	–	< 0.06%	18.9 mL/min/kg	–	–	–	–	–
Cc1cc(NC(=O)Cn2nnc(-c3cccc(Cl)c3)n2)n(C2CCCCC2)n1	–	89%	300 nM	66%	662 nM	–	–	–	–	–	–	–	–	3 to 5
O=C(Cn1nnc(-c2ccccc2)n1)Nc1cc(C2(C(F)(F)F)CC2)nn1C1CCCCC1	Not Active	inactive	–	inactive	–	–	–	–	–	–	–	Not Active	–	–
COc1cccc(-c2nnn(CC(=O)Nc3cc(C)nn3C3CCCCC3)n2)c1	–	76%	117 nM	40%	299 nM	–	–	–	–	–	–	–	–	–
